Assay results: patent US9359451B2, “Methods and compositions for treating trauma-hemorrhage using estrogen and derivatives thereof” (THE UAB RESEARCH FOUNDATION, priority 2012, dated 2016)
“Also recorded” adds a separate entry of the source.

Key:
[1] = system: iNOS, nitrotyrosine, COX-2, Bax and Bcl-2; assay: Spinal cord injury: immunohistochemical localization of nitrotyrosine, iNOS, COX-2, Bax and Bcl-2; type: in vivo, mouse; conditions: 24 h after SCI; ICI 182,780: co-administered with 17β-estradiol
Procedure: Mice were anaesthetized using chloral hydrate (400 mg/kg body weight) (Genovese 2006). A longitudinal incision was made on the midline of the back, exposing the paravertebral muscles. These muscles were dissected away exposing T5-T8 vertebrae. The spinal cord was exposed via a four-level T6-T7 laminectomy and SCI was produced by extradural compression using an aneurysm clip with a closing force of 24 g. Following surgery, 1 ml of saline was administered subcutaneously in order to replace the blood volume lost during surgery. During the surgery and recovery from anesthesia, the mice were placed on a warm heating pad and covered with a warm towel. […] Food and water were provided to the mice ad libitum. During this time period, the animals' bladders were manually voided twice a day until the mice were able to regain normal bladder function. In all injured groups, the spinal cord was compressed for 1 min. Sham-injured animals were only subjected to laminectomy. Mice were randomly allocated into the following groups: (i) saline+SCI group, mice received saline subcutaneously and were subjected to SCI (n=40); […] (v) saline+sham group, mice were subjected to the surgical procedures as above group except that the aneurysm clip was not applied (n=40); […] In the experiments regarding the motor score, the animals from all the experimental groups were observed and treated daily for 9 days after SCI. At different time points (see FIG. 30), the mice (n=10 from each group for each of the 3 time points) were sacrificed in order to evaluate the various parameters as described below. […] After deparaffinization, endogenous peroxidase was quenched with 0.3% (v/v) hydrogen peroxide in 60% (v/v) methanol for 30 min. […] Non-specific adsorption was minimized by incubating the section in 2% (v/v) normal goat serum in PBS for 20 min. Endogenous biotin or avidin binding sites were blocked by sequential incubation for 15 min with biotin and avidin (DBA), respectively. […] Sections were washed with PBS, and incubated with secondary antibody. Specific labeling was detected with a biotin-conjugated goat anti-rabbit IgG and avidin-biotin peroxidase complex (DBA) and counterstained with nuclear fast red. To verify the binding specificity for nitrotyrosine, iNOS, COX-2, Bax, and Bcl-2, some sections were also incubated with only the primary antibody (no secondary) or with only the secondary antibody (no primary). […] Immunocytochemistry photographs (n=5) were assessed by densitometry as previously described (Shea 1994) by using Imaging Densitometer (AxioVision, Zeiss, Milan, Italy) and a computer program.

[2] = system: TNF-α, IL-1β, IL-6 and MCP-1 mRNA; assay: Spinal cord injury: quantitative real time PCR of cytokines and chemokines; type: in vivo, mouse; conditions: 24 h after SCI; ICI 182,780: co-administered with 17β-estradiol
Procedure: Mice were anaesthetized using chloral hydrate (400 mg/kg body weight) (Genovese 2006). A longitudinal incision was made on the midline of the back, exposing the paravertebral muscles. These muscles were dissected away exposing T5-T8 vertebrae. The spinal cord was exposed via a four-level T6-T7 laminectomy and SCI was produced by extradural compression using an aneurysm clip with a closing force of 24 g. Following surgery, 1 ml of saline was administered subcutaneously in order to replace the blood volume lost during surgery. During the surgery and recovery from anesthesia, the mice were placed on a warm heating pad and covered with a warm towel. The mice were singly housed in a temperature-controlled room at 27° C. and survival was measured over a period of 10 days. Food and water were provided to the mice ad libitum. During this time period, the animals' bladders were manually voided twice a day until the mice were able to regain normal bladder function. In all injured groups, the spinal cord was compressed for 1 min. Sham-injured animals were only subjected to laminectomy.
In the experiments regarding the motor score, the animals from all the experimental groups were observed and treated daily for 9 days after SCI. At different time points (see FIG. 30), the mice (n=10 from each group for each of the 3 time points) were sacrificed in order to evaluate the various parameters as described below.
A segment of spinal cord (320±124 mg) encompassing lesion epicentre was homogenized in a solution of Tri-reagent (Sigma®, Germany) according to the manufacturer's instructions. Total cellular RNA was isolated from the aqueous phase then the levels of […], TNF-α, MCP-1, IL-6 gene products were determined by Real Time PCR. The amount of each PCR product of gene target was normalized to Glyceraldehyde-3-phosphate dehydrogenase (GAPDH). The RNA extracted from spinal cord of individual mice was reverse transcripted into first strand cDNA with Random Hexamers and purified Avian Myeloblastosis Virus Reverse Transcriptase (Takara, Japan) in […] of reaction after a DNAse treatment and stored at −80° C. until use. Primers pair for each cytokine was designed using the software Oligo (Molecular Biology Insights, Cascade, Colo., USA). The PCR reactions were performed using the following cycle conditions: a denaturation step for 15 minutes at 95° C. and 40 cycles of 30 seconds denaturation at 94° C., 30 seconds annealing (TNF-á 61° C., IL-6 54° C., IL-1β 61° C., MCP-1 54° C., GADPH 56° C.), 15 sec at 72° C. and 7 minutes of final extension at 72° C. The PCR products were visualized by electrophoresis on agarose gel 2% stained by ethidium bromide. The purified PCR products were cloned into a plasmid vector, transformed into the E. coli TOP 10 (Invitrogen) and purified with Turbo Kit (QBIOgene, CA, USA). The recombinant plasmid was linearized upstream the target sequence using the restriction endonuclease PmeI (Fermentas, Canada). Tenfold dilutions of recombinant plasmid from 10^9 copies down to 10^1 copies were used as standards. The real time PCR assay was developed and evaluated on the Rotor-Gene 3000 system (Corbett Research, Australia). Reaction was carried out in a final volume of 25 μl containing 1× of SYBR PREMIX Ex Taq Takara, 200 nM each forward and reverse primers, 1× of Rox References Dye and 2 μl of cDNA. Cycling parameters were the following: 10 minutes at 95° C. for polymerase activation followed by 40 cycles of 15 seconds at 95° C., 15 seconds annealing (TNF-α 61° C., […], IL-6 54° C., IL-1β 61° C., MCP-1 54° C., GADPH 56° C.) 20 sec at 72° C. The signal was acquired on the FAM channel (multichannel machine) (source, 470 nm; detector, 510 nm; gain set to 5) with the fluorescence reading taken at the end of each 72° C. step. A melt step was added after a cycling run performed with the same parameters of the SYBR Green assay. […]

## C[C@]12CC[C@@H]3c4ccc(O)cc4CC[C@H]3[C@@H]1CC[C@@H]2O [17β-estradiol]
[1]
  immunohistochemical expression of Bax: reduced the degree of positive staining for Bax; also recorded: significantly inhibited the SCI-induced increase in Bax expression
  immunohistochemical expression of Bcl-2: attenuated the loss of positive staining for Bcl-2; also recorded: significantly prevents the loss of Bcl-2 expression
  immunostaining for COX-2: reduced the degree of positive staining for COX-2; also recorded: marked reduction in the immunostaining for COX-2
  immunostaining for iNOS: reduced the degree of positive staining for iNOS; also recorded: marked reduction in the immunostaining
  immunostaining for nitrotyrosine: reduced the degree of positive staining for nitrotyrosine; also recorded: marked reduction in the immunostaining
[2]
  IL-1β mRNA levels in spinal cord: significantly reduced
  IL-6 mRNA levels in spinal cord: significantly reduced
  MCP-1 mRNA levels in spinal cord: significantly reduced
  TNF-α mRNA levels in spinal cord: significantly reduced

## C[C@]12CC[C@@H]3c4ccc(O)cc4C[C@@H](CCCCCCCCC[S+]([O-])CCCC(F)(F)C(F)(F)F)[C@H]3[C@@H]1CC[C@@H]2O (stereo partly drawn) [ICI 182,780]
[1]
  immunohistochemical expression of Bax: significantly blocked the effect of the 17β-estradiol
  immunohistochemical expression of Bcl-2: significantly blocked the effect of the 17β-estradiol
  immunostaining for COX-2: significantly blocked the effect of the 17β-estradiol
  immunostaining for iNOS: significantly blocked the effect of the 17β-estradiol
  immunostaining for nitrotyrosine: significantly blocked the effect of the 17β-estradiol
[2]
  IL-1β mRNA levels in spinal cord: significantly blocked the effect of the 17β-estradiol
  IL-6 mRNA levels in spinal cord: significantly blocked the effect of the 17β-estradiol
  MCP-1 mRNA levels in spinal cord: significantly blocked the effect of the 17β-estradiol
  TNF-α mRNA levels in spinal cord: significantly blocked the effect of the 17β-estradiol
